Measured values as given in ChEMBL document CHEMBL1201862, “PubChem BioAssay data set” (2004).
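Where inhibition never reached the appropriate level, the endpoint shown equals the highest concentration tested. Otherwise, values were interpolated linearly from a five-concentration, 48-hour dose response in 96-well plates. Here, GI50 denotes the concentration required for 50% inhibition of growth.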 Active and inactive are the calls of the source. Rule as the data show it: active = GI50 up to about 1.1 µM and inactive = higher.

Columns and labels:
Assay in all cases: NCI anticancer screen, dose series, 48 h
NCI-H460 = test system: NCI-H460
SK-OV-3 = test system: SK-OV-3
SF-295 = test system: SF-295
A549 = test system: A549
A498 = test system: A498
DMS-114 = test system: DMS-114
RXF 631 = test system: RXF 631
HCT-116 = test system: HCT-116
CCRF-CEM = test system: CCRF-CEM
SNB-78 = test system: SNB-78
OVCAR-8 = test system: OVCAR-8
M19-MEL = test system: M19-MEL
DMS-273 = test system: DMS-273
OVCAR-5 = test system: OVCAR-5
KM12 = test system: KM12
SNB-19 = test system: SNB-19
KM-20L2 = test system: KM-20L2
EKVX = test system: EKVX
IGROV-1 = test system: IGROV-1
HOP-62 = test system: HOP-62
HL-60 = test system: HL-60
UO-31 = test system: UO-31
U-251 = test system: U-251
NCI-H23 = test system: NCI-H23
SK-MEL-28 = test system: SK-MEL-28
NCI-H522 = test system: NCI-H522
ACHN = test system: ACHN
UACC-62 = test system: UACC-62
UACC-257 = test system: UACC-257
SR = test system: SR
HOP-92 = test system: HOP-92
M14 = test system: M14
MOLT-4 = test system: MOLT-4
RXF 393 = test system: RXF 393
HT-29 = test system: HT-29
TK-10 = test system: TK-10
K562 = test system: K562
SW-620 = test system: SW-620
SK-MEL-5 = test system: SK-MEL-5
CAKI-1 = test system: CAKI-1
RPMI-8226 = test system: RPMI-8226
SF-268 = test system: SF-268
HCT-15 = test system: HCT-15
SK-MEL-2 = test system: SK-MEL-2
NCI-H226 = test system: NCI-H226
SNB-75 = test system: SNB-75
HCC 2998 = test system: HCC 2998
OVCAR-4 = test system: OVCAR-4
COLO 205 = test system: COLO 205
Malme-3M = test system: Malme-3M
LOX IMVI = test system: LOX IMVI
SN12C = test system: SN12C
OVCAR-3 = test system: OVCAR-3
786-0 = test system: 786-0
HOP-18 = test system: HOP-18
XF498 = test system: XF498
DLD-1 = test system: DLD-1
SF-539 = test system: SF-539
LXFL 529 = test system: LXFL 529

NC(CCc1nc(-c2cccc([N+](=O)[O-])c2)cs1)C(=O)O (configuration not stated)
GI50 (NCI-H460): > 100 µM (inactive) | GI50 (SK-OV-3): > 100 µM (inactive) | GI50 (SF-295): > 100 µM (inactive) | GI50 (A549): > 100 µM (inactive) | GI50 (A498): > 100 µM (inactive) | GI50 (DMS-114): > 100 µM (inactive) | GI50 (RXF 631): > 100 µM (inactive) | GI50 (HCT-116): > 100 µM (inactive) | GI50 (CCRF-CEM): > 100 µM (inactive) | GI50 (SNB-78): > 100 µM (inactive) | GI50 (OVCAR-8): > 100 µM (inactive) | GI50 (M19-MEL): > 100 µM (inactive) | GI50 (DMS-273): > 100 µM (inactive) | GI50 (OVCAR-5): > 100 µM (inactive) | GI50 (KM12): > 100 µM (inactive) | GI50 (SNB-19): > 100 µM (inactive) | GI50 (KM-20L2): > 100 µM (inactive) | GI50 (EKVX): > 100 µM (inactive) | GI50 (IGROV-1): > 100 µM (inactive) | GI50 (HOP-62): > 100 µM (inactive) | GI50 (HL-60): > 100 µM (inactive) | GI50 (UO-31): > 100 µM (inactive) | GI50 (U-251): > 100 µM (inactive) | GI50 (NCI-H23): > 100 µM (inactive) | GI50 (SK-MEL-28): > 100 µM (inactive) | GI50 (NCI-H522): > 100 µM (inactive) | GI50 (ACHN): > 100 µM (inactive) | GI50 (UACC-62): > 100 µM (inactive) | GI50 (UACC-257): > 100 µM (inactive) | GI50 (SR): > 100 µM (inactive) | GI50 (HOP-92): > 100 µM (inactive) | GI50 (M14): > 100 µM (inactive) | GI50 (MOLT-4): > 100 µM (inactive) | GI50 (RXF 393): > 100 µM (inactive) | GI50 (HT-29): > 100 µM (inactive) | GI50 (TK-10): > 100 µM (inactive)

CCCC(=O)CC(C)C(=O)C(=O)NC12CC3CC(CC(C3)C1)C2 (configuration not stated)
GI50 (NCI-H460): > 100 µM (inactive) | GI50 (K562): > 100 µM (inactive) | GI50 (SW-620): > 100 µM (inactive) | GI50 (SF-295): > 100 µM (inactive) | GI50 (SK-MEL-5): > 100 µM (inactive) | GI50 (CAKI-1): > 100 µM (inactive) | GI50 (RPMI-8226): > 100 µM (inactive) | GI50 (SF-268): > 100 µM (inactive) | GI50 (HCT-15): > 100 µM | GI50 (SK-MEL-2): > 100 µM (inactive) | GI50 (NCI-H226): > 100 µM (inactive) | GI50 (A549): > 100 µM (inactive) | GI50 (SNB-75): 97.5 µM (inactive) | GI50 (HCC 2998): > 100 µM (inactive) | GI50 (OVCAR-4): > 100 µM (inactive) | GI50 (CCRF-CEM): > 100 µM (inactive) | GI50 (SNB-78): > 100 µM (inactive) | GI50 (OVCAR-8): > 100 µM (inactive) | GI50 (COLO 205): > 100 µM (inactive) | GI50 (DMS-273): > 100 µM (inactive) | GI50 (OVCAR-5): > 100 µM (inactive) | GI50 (KM12): > 100 µM (inactive) | GI50 (SNB-19): > 100 µM (inactive) | GI50 (Malme-3M): > 100 µM (inactive) | GI50 (KM-20L2): > 100 µM (inactive) | GI50 (EKVX): > 100 µM (inactive) | GI50 (HOP-62): > 100 µM (inactive) | GI50 (HL-60): > 100 µM (inactive) | GI50 (UO-31): > 100 µM (inactive) | GI50 (U-251): > 100 µM (inactive) | GI50 (LOX IMVI): > 100 µM (inactive) | GI50 (NCI-H23): > 100 µM (inactive) | GI50 (SK-MEL-28): > 100 µM (inactive) | GI50 (NCI-H522): > 100 µM (inactive) | GI50 (ACHN): > 100 µM (inactive) | GI50 (SN12C): > 100 µM (inactive) | GI50 (UACC-257): > 100 µM (inactive) | GI50 (OVCAR-3): > 100 µM (inactive) | GI50 (786-0): > 100 µM (inactive) | GI50 (HOP-18): > 100 µM (inactive) | GI50 (XF498): > 100 µM (inactive) | GI50 (HOP-92): 22.3 µM (inactive) | GI50 (M14): > 100 µM (inactive) | GI50 (MOLT-4): > 100 µM (inactive) | GI50 (RXF 393): > 100 µM (inactive) | GI50 (DLD-1): > 100 µM (inactive) | GI50 (HT-29): > 100 µM (inactive) | GI50 (TK-10): > 100 µM (inactive)

COc1cc(CNC2c3cc4c(cc3C(c3cc(OC)c(OC)c(OC)c3)[C@H]3C(=O)OCC23)OCO4)cc(OC)c1OC (some centres not stated)
GI50 (NCI-H460): 0.29 µM (active) | GI50 (SF-539): 0.191 µM (active) | GI50 (K562): 0.298 µM (active) | GI50 (SW-620): 0.416 µM (active) | GI50 (SK-OV-3): 0.385 µM (active) | GI50 (SF-295): 0.137 µM (active) | GI50 (SK-MEL-5): 0.216 µM (active) | GI50 (RPMI-8226): 0.419 µM (active) | GI50 (SF-268): 0.372 µM (active) | GI50 (HCT-15): 0.324 µM | GI50 (SK-MEL-2): 0.426 µM (active) | GI50 (NCI-H226): 0.128 µM (active) | GI50 (A549): 0.417 µM (active) | GI50 (A498): 0.254 µM (active) | GI50 (LXFL 529): 0.356 µM (active) | GI50 (SNB-75): 0.535 µM (active) | GI50 (DMS-114): 0.197 µM (active) | GI50 (HCC 2998): 0.305 µM (active) | GI50 (HCT-116): 0.245 µM (active) | GI50 (CCRF-CEM): 0.35 µM (active) | GI50 (OVCAR-8): 0.247 µM (active) | GI50 (COLO 205): 0.18 µM (active) | GI50 (M19-MEL): 1.28 µM (inactive) | GI50 (DMS-273): 0.237 µM (active) | GI50 (OVCAR-5): > 100 µM (inactive) | GI50 (KM12): 0.177 µM (active) | GI50 (SNB-19): 0.272 µM (active) | GI50 (Malme-3M): > 100 µM (inactive) | GI50 (KM-20L2): 0.197 µM (active) | GI50 (IGROV-1): 1.1 µM (active) | GI50 (HOP-62): 0.231 µM (active) | GI50 (HL-60): 0.223 µM (active) | GI50 (UO-31): 0.792 µM (active) | GI50 (U-251): 0.318 µM (active) | GI50 (LOX IMVI): 0.288 µM (active) | GI50 (NCI-H23): 0.267 µM (active) | GI50 (NCI-H522): 0.0661 µM (active) | GI50 (ACHN): 0.42 µM (active) | GI50 (SN12C): 0.376 µM (active) | GI50 (UACC-62): 0.156 µM (active) | GI50 (UACC-257): > 100 µM (inactive) | GI50 (OVCAR-3): 0.627 µM (active) | GI50 (786-0): 0.428 µM (active) | GI50 (HOP-18): 55.5 µM (inactive) | GI50 (XF498): 0.364 µM (active) | GI50 (SR): 0.314 µM (active) | GI50 (HOP-92): 0.528 µM (active) | GI50 (M14): 0.447 µM (active) | GI50 (MOLT-4): 0.367 µM (active) | GI50 (RXF 393): 0.308 µM (active) | GI50 (DLD-1): 0.41 µM (active) | GI50 (HT-29): 0.335 µM (active) | GI50 (TK-10): > 100 µM (inactive)
